From patent US9279806B2, “Water-soluble AIE luminogens for monitoring and retardation of fibrillation of amyloid proteins” (THE HONG KONG UNIVERSITY OF SCIENCE AND TECHNOLOGY, priority 2005, dated 2016)

Key:
[1] = test system: G1 (ssDNA that mimics human telomeric sequence) / G-quadruplex; test: DNA probing and quadruplex recognition by FL/CD of TTAPE with G1; type: binding
Experimental: G1 is a 21-mer ssDNA that mimics human telomeric sequence. When the DNA is added into a solution of TTAPE in a Tris-HCl buffer, the solution starts to luminesce (FIG. 27A). Similar FL “lightup” phenomenon has been observed in the thiazole orange system. The I/I0 ratio of TTAPE at 470 nm increases rapidly in a narrow DNA concentration range and reaches its maximum at [G1]=5 μM (FIG. 27B). While conventional FL dyes suffer from self-quenching problems at high dye concentrations, the FL of TTAPE is continuously intensified with increasing its concentration (FIG. 28 and FIG. 27B), thanks to its unique AIE feature. In the aqueous buffer, the cationic dye spontaneously binds to the anionic DNA via electrostatic attraction, resulting in the formation of a TTAPE/G1 complex. Hydrophobic interaction between TTAPE and G1 may have also played a role in the binding process. These intermolecular forces lock conformations of the TTAPE molecules bound to the G1 strands. Consequently, the intramolecular rotations of TTAPE are restricted, which thus blocks its radiationless relaxation pathways and activates its FL process.
A complex of ssDNA and TTAPE was prepared by mixing 10 μL G 1 (0.1 mM) and 50 μL TTAPE (0.01 mM) in 5 mM Tris-HCl buffer in a 1.5 ml Eppendorf cup. The solution was incubated at 4° C. for 30 min. G-quadruplex formation was induced by adding 10 μl of a 1.0 M KCl solution into the Eppendorf cup. The final concentrations of TTAPE and G1 were kept at 4.5 and 9.0 μM, respectively. For other cationic species, the same amounts of corresponding salts were used. Kinetic experiment was conducted immediately after the injection of the cationic solution, while other spectral measurements were performed after an incubation period of 30 min.
DNA samples of G1, C1 and C2 were obtained from Operon in desalt purity and used without further purification. G1 was chosen as a model ssDNA mimicking the human telomeric repeat sequence d(T2AG3), which is capable of forming intramolecular G-quadruplex. Concentrations of the DNA strands were determined by measuring their absorptivity (E) values at 260 nm in a 100 μL quartz cuvette [ε(×10^5 M^−1 cm^−1): 2.14 (G1), 1.85 (C1), 1.85 (C2)]. Water was purified by a Millipore filtration system. Buffer solution was prepared by titrating 5 mM Tris with HCl until its pH value reached 7.50. All experiments were performed at room temperature unless otherwise specified.

Solubility = type: physicochemical
H21 = test: Job plots for the binding of TTAPE to H21
Experimental: The sum of TTAPE and DNA concentrations was kept at 10 μM. Fluorescent intensities for the bound TTAPE at 470 nm are normalized to the maximum increase in each case. The y-axis represents the difference in PL intensity for mole fraction of ligand (χL) in DNA. Intercept mole fraction values were determined from least-squares fits to the linear data portions, giving yjni values of 0.50 (1:1 stoichiometry) for H21 in K-Tris, 0.67 […] for H21 in Na-Tris, and 0.75 […] for H21 in Tris-HCl, respectively.

[2] = entry 1: K+ added to TTAPE/G1 mixture, room temperature
[3] = entry 2: G1 added to TTAPE/K+ mixture
[4] = entry 3: TTAPE added to G1/K+ mixture

Solubility in water (Solubility): completely soluble in water
Job plot intercept mole fraction (H21; H21 in K-Tris buffer pH 7.50): 0.50
Job plot intercept mole fraction (H21; H21 in Na-Tris buffer pH 7.50): 0.67
Job plot intercept mole fraction (H21; H21 in Tris-HCl buffer pH 7.50): 0.75
SMILES: CC[N+](CC)(CC)CCOc1ccc(C(=C(c2ccc(OCC[N+](CC)(CC)CC)cc2)c2ccc(OCC[N+](CC)(CC)CC)cc2)c2ccc(OCC[N+](CC)(CC)CC)cc2)cc1.[Br-].[Br-].[Br-].[Br-] [TTAPE, 1,1,2,2-tetrakis[4-(2-triethylammonioethoxy)phenyl]ethene tetrabromide]
Red-shift of excitation and emission spectra on quadruplex formation ([1]; K+ added to TTAPE/G1): ~20 nm
G1 concentration at which I/I0 at 470 nm reaches its maximum ([1]; TTAPE 4.5 μM in Tris-HCl buffer): 5 µM
CD intensity (relative intensity at 295 nm) [1, 2]: 1.00
FL intensity (relative intensity at 492 nm) [1, 2]: 1.00
CD intensity (relative intensity at 295 nm) [1, 3]: 0.92
FL intensity (relative intensity at 492 nm) [1, 3]: 0.82
CD intensity (relative intensity at 295 nm) [1, 4]: 0.88
FL intensity (relative intensity at 492 nm) [1, 4]: 0.70
